In the experiment the target is T1, human S1P1 receptor (Homo sapiens, UniProt P21453).
T1 construct: expressed in transfected cells; membranes used
Briefly: GTP γ35S binding assay for S1P1 activity. The class given is biochemical. The conditions noted are these: membranes of cells stably expressing the S1P1 receptor, agonist activity potency. On the procedure:
Compounds were synthesized and tested for S1P1 activity using the GTP γ^35S binding assay. These compounds may be assessed for their ability to activate or block activation of the human S1P1 receptor in cells stably expressing the S1P1 receptor.
GTP γ^35S binding was measured in the medium containing (mM) HEPES 25, pH 7.4, MgCl2 10, NaCl 100, dithiothreitol 0.5, digitonin 0.003%, 0.2 nM GTP γ^35S, and 5 μg membrane protein in a volume of 150 μl. Test compounds were included in the concentration range from 0.08 to 5,000 nM unless indicated otherwise. Membranes were incubated with 100 μM 5′-adenylylimidodiphosphate for 30 min, and subsequently with 10 μM GDP for 10 min on ice. Drug solutions and membrane were mixed, and then reactions were initiated by adding GTP γ^35S and continued for 30 min at 25° C. Reaction mixtures were filtered over Whatman GF/B filters under vacuum, and washed three times with 3 mL of ice-cold buffer (HEPES 25, pH 7.4, MgCl2 10 and NaCl 100). Filters were dried and mixed with scintillant, and counted for ^35S activity using a β-counter. Agonist-induced GTP γ^35S binding was obtained by subtracting that in the absence of agonist. Binding data were analyzed using a non-linear regression method. In case of antagonist assay, the reaction mixture contained 10 nM S1P in the presence of test antagonist at concentrations ranging from 0.08 to 5000 nM.
A general note: GTPγS resists hydrolysis and so accumulates on activated G proteins.

One may read the pEC50 as −log10 of the EC50, conventionally taken in molar units. Higher therefore signals a low EC50.

The structures appear in SMILES notation. pEC50: −log10 of the molar value.

T1 sequence (P21453 whole entry): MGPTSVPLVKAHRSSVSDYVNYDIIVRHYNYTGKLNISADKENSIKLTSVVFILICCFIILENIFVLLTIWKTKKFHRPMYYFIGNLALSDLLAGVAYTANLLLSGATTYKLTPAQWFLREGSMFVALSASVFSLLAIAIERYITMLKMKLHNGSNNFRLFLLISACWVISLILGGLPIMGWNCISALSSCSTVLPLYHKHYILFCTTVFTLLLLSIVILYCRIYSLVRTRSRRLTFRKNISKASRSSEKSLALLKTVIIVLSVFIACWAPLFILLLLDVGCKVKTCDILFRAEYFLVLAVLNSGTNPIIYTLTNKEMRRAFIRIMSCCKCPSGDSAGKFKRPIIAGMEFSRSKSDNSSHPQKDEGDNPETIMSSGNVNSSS

Regarding `Cc1nn(C(=O)CCc2ccc(CN3CC(C(=O)O)C3)cc2)c2c1C1C(C2)C1(C)C` (stereo not shown) [Compound 1, 1-{4-[3-oxo-3-(3,4,4-trimethyl-3b,4,4a,5-tetrahydro-1H-cyclopropa [3,4]cyclopenta[1,2-c]pyrazol-1-yl)propyl]benzyl}azetidine-3-carboxylic acid], the pEC50 is 6.35.

The values above are taken from patent US9062030B2, “Pyrazole azetidine derivatives as sphingosine 1-phosphate (S1P) receptor modulators” (Allergan, Inc., priority 2013, dated 2015).
